Assay results taken from ChEMBL document CHEMBL3414432, “Discovery of N-benzoxazol-5-yl-pyrazole-4-carboxamides as nanomolar SQR inhibitors” (Eur J Med Chem, 2015).

Tests used:
[1] = Inhibition of porcine heart SQR in SCR complex assessed as reduction in ubiquinol-cytochrome c reductase (complex 3) activity by measuring cytochrome c level using succinate and DCIP substrate by spectrophotometry; set-up: species or system Sus scrofa
[2] = Inhibition of bovine heart SQR; set-up: species or system Bos taurus
[3] = Inhibition of rat liver SQR
[4] = Inhibition of porcine heart SCR using succinate and cytochrome c substrate at 23 degC by spectrophotometry; set-up: species or system Sus scrofa
[5] = biological target: T1, Succinate-ubiquinone oxidoreductase (Sus scrofa, UniProt A5GZW8+D0VWV4); test: Inhibition of porcine heart SQR in SCR complex assessed as reduction in ubiquinol-cytochrome c reductase (complex 3) activity by measuring cytochrome c level using succinate and DCIP substrate at 23 degC by spectrophotometry; assay type: protein-complex assay
T1 sequence (A5GZW8 whole entry): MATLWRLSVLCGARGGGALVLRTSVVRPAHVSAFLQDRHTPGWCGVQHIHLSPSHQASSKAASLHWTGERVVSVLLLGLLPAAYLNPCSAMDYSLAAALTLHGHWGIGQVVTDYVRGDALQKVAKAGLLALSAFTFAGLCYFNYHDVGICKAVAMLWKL
T1 sequence (D0VWV4 whole entry): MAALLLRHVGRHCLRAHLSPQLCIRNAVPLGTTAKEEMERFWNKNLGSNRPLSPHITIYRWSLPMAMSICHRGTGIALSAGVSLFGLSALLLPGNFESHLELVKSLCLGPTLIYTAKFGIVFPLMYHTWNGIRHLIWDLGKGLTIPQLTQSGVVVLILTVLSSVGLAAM

[6] = organism: Sus scrofa; test: Inhibition of porcine heart electron transport protein complex 3 in SCR complex at 10 uM using DBH2 and cytochrome c substrate by spectrophotometry
[7] = Non-competitive inhibition of porcine heart SCR with respect to cytochrome c substrate at 23 degC by double-reciprocal plot; set-up: species or system Sus scrofa
[8] = biological target: T1, Succinate-ubiquinone oxidoreductase; test: Non-competitive inhibition of porcine heart SQR in SCR complex with respect to DCIP substrate at 23 degC by double-reciprocal plot; assay type: protein-complex assay
[9] = organism: Sus scrofa; test: Potency index, ratio of Ki for penthiopyrad to Ki for compound against porcine heart SCR
[10] = biological target: Succinate-ubiquinone oxidoreductase (Sus scrofa) (UniProt A5GZW8+D0VWV4); test: Potency index, ratio of Ki for penthiopyrad to Ki for compound against porcine heart SQR in SCR complex; assay type: protein-complex assay

Cn1cc(C(=O)Nc2ccc3oc(SCc4ccc(C(F)(F)F)cc4)nc3c2)c(C(F)(F)F)n1
IC50 [1]: 83 nM

Cn1cc(C(=O)Nc2ccc3oc(SCc4cccc(F)c4)nc3c2)c(C(F)F)n1
IC50 [1]: 244 nM

Cn1cc(C(=O)Nc2ccc3oc(SCc4ccc(F)c(F)c4)nc3c2)c(C(F)F)n1
IC50 [1]: 100 nM

Cn1cc(C(=O)Nc2ccc3oc(SCc4ccc(F)cc4)nc3c2)c(C(F)F)n1
IC50 [1]: 101 nM

COc1[nH]c(=O)c(C(=O)[C@@H](C)C[C@H](C)[C@@H](Cl)CCl)c(O)c1OC [ATPENIN A5]
IC50 [2]: 3.6 nM
IC50 [3]: 3.7 nM

COc1ccc(CSc2nc3cc(NC(=O)c4cn(C)nc4C(F)F)ccc3o2)cc1
IC50 [1]: 208 nM

CC(C)CC(C)c1sccc1NC(=O)c1cn(C)nc1C(F)(F)F (configuration not stated) [PENTHIOPYRAD]
IC50 [4]: 1320 nM
IC50 [5]: 527 nM
IC50 [1]: 1320 nM
inhibition [6]: < 10%
Ki [7]: 1390 nM
Ki [8]: 327 nM

Cn1cc(C(=O)Nc2ccc3oc(SCc4ccc(Cl)cc4)nc3c2)c(C(F)F)n1
IC50 [1]: 57 nM

Cc1ccc(CSc2nc3cc(NC(=O)c4cn(C)nc4C(F)(F)F)ccc3o2)cc1
IC50 [1]: 269 nM

Cn1cc(C(=O)Nc2ccc3oc(SCc4cccc(Br)c4)nc3c2)c(C(F)(F)F)n1
IC50 [1]: 119 nM

Cn1cc(C(=O)Nc2ccc3oc(SCc4cccc(Cl)c4)nc3c2)c(C(F)(F)F)n1
IC50 [1]: 149 nM

Cn1cc(C(=O)Nc2ccc3oc(SCc4ccc(C(F)(F)F)cc4)nc3c2)c(C(F)F)n1
IC50 [1]: 39 nM

Cn1cc(C(=O)Nc2ccc3oc(SCc4ccc(F)c(F)c4)nc3c2)c(C(F)(F)F)n1
IC50 [1]: 130 nM

Cn1cc(C(=O)Nc2ccc3oc(SCc4ccc(F)cc4)nc3c2)c(C(F)(F)F)n1
IC50 [1]: 210 nM

Cn1cc(C(=O)Nc2ccc3oc(SCc4ccc(OC(F)(F)F)cc4)nc3c2)c(C(F)F)n1
Ratio Ki [9]: 30
IC50 [4]: 38 nM
IC50 [5]: 11 nM
Ratio Ki [10]: 30
IC50 [1]: 38 nM
inhibition [6]: 13%
Ki [7]: 43 nM
Ki [8]: 11 nM

Cn1cc(C(=O)Nc2ccc3oc(SCc4cccc(Br)c4)nc3c2)c(C(F)F)n1
IC50 [1]: 62 nM

Cn1cc(C(=O)Nc2ccc3oc(SCc4ccc(Cl)cc4)nc3c2)c(C(F)(F)F)n1
IC50 [1]: 111 nM

Cn1cc(C(=O)Nc2ccc3oc(SCc4ccc(C#N)cc4)nc3c2)c(C(F)F)n1
IC50 [1]: 397 nM

COc1ccc(CSc2nc3cc(NC(=O)c4cn(C)nc4C(F)(F)F)ccc3o2)cc1
IC50 [1]: 284 nM

Cc1ccc(CSc2nc3cc(NC(=O)c4cn(C)nc4C(F)F)ccc3o2)cc1
IC50 [1]: 216 nM

Cn1cc(C(=O)Nc2ccc3oc(SCc4ccc(C#N)cc4)nc3c2)c(C(F)(F)F)n1
IC50 [1]: 562 nM

Cn1cc(C(=O)Nc2ccc3oc(SCc4cccc(F)c4)nc3c2)c(C(F)(F)F)n1
IC50 [1]: 418 nM

Cn1cc(C(=O)Nc2ccc3oc(SCc4ccc(OC(F)(F)F)cc4)nc3c2)c(C(F)(F)F)n1
IC50 [1]: 88 nM

Cn1cc(C(=O)Nc2ccc3oc(SCc4cccc(Cl)c4)nc3c2)c(C(F)F)n1
IC50 [1]: 82 nM
